# Laboratory results from patent US9265253B2, “Use of macrocyclic picolinamides as fungicides” (DOW AGROSCIENCES LLC, priority 2013, dated 2016).
# Tested on: Leptosphaeria nodorum
# Assay: Wheat Glume Blotch (LEPTNO) disease control
# Assay type: in vivo
# Conditions: Parastagonospora nodorum, topical, 24 h, 1 Day Protectant, read-out: Disease Control LEPTNO 1 DP
# Method: Technical grades of materials were dissolved in acetone, which were then mixed with nine volumes of water containing 110 ppm Triton X-100. The fungicide solutions were applied onto wheat seedlings using an automated booth sprayer to run-off. All sprayed plants were allowed to air dry prior to further handling. All fungicides were evaluated using the aforementioned method for their activity vs. all target diseases. Wheat leaf blotch and brown rust activity were also evaluated using track spray applications, in which case the fungicides were formulated as EC formulations, containing 0.1% Trycol 5941 in the spray solutions. Wheat plants (variety Yuma) were grown from seed in a greenhouse in 50% mineral soil/50% soil-less Metro mix until the first leaf was fully emerged, with 7-10 seedlings per pot. These plants were inoculated with an aqueous spore suspension of Septoria tritici either prior to or after fungicide treatments. After inoculation the plants were kept in 100% relative humidity (one day in a dark dew chamber followed by two to three days in a lighted dew chamber at 20° C.) to permit spores to germinate and infect the leaf. The plants were then transferred to a greenhouse set at 20° C. for disease to develop. When disease symptoms were fully expressed on the 1st leaves of untreated plants, infection levels were assessed on a scale of 0 to 100 percent disease severity. Percent disease control was calculated using the ratio of disease severity on treated plants relative to untreated plants. Wheat plants (variety Yuma) were grown from seed in a greenhouse in 50% mineral soil/50% soil-less Metro mix until the first leaf was fully emerged, with 7-10 seedlings per pot. These plants were inoculated with an aqueous spore suspension of Leptosphaeria nodorum 24 hr after fungicide treatments. After inoculation the plants were kept in 100% relative humidity (one day in a dark dew chamber followed by two days in a lighted dew chamber at 20° C.) to permit spores to germinate and infect the leaf. The plants were then transferred to a greenhouse set at 20° C. for disease to develop. Fungicide formulation, application and disease assessment followed the procedures as described in the Example A.
row,SMILES,pest or weed control at 100 ppm [%]
1,COc1ccnc(C(=O)N[C@H]2CCC[C@H](Cc3ccccc3)[C@@H](Oc3ccccc3)[C@H](C)OC2=O)c1OCOC(C)=O [Compound F108],80 to 100
2,COc1ccnc(C(=O)N[C@H]2CCC[C@H](Cc3ccccc3)[C@@H](OC3CCCC3)[C@H](C)OC2=O)c1OCOC(C)=O [Compound F110],80 to 100
3,CCCO[C@@H]1[C@@H](Cc2ccccc2)CCC[C@H](NC(=O)c2nccc(OC)c2OC(=O)CCOC)C(=O)O[C@H]1C [Compound F198],80 to 100

# Tested on: Cercospora beticola
# Assay: Leaf Spot of Sugar Beets (CERCBE) disease control
# Assay type: in vivo
# Conditions: Cercospora beticola, topical, 24 h, 1 Day Protectant, sugar beet, read-out: Disease Control CERCBE 1 DP
# Method: Technical grades of materials were dissolved in acetone, which were then mixed with nine volumes of water containing 110 ppm Triton X-100. The fungicide solutions were applied onto wheat seedlings using an automated booth sprayer to run-off. All sprayed plants were allowed to air dry prior to further handling. All fungicides were evaluated using the aforementioned method for their activity vs. all target diseases. Wheat leaf blotch and brown rust activity were also evaluated using track spray applications, in which case the fungicides were formulated as EC formulations, containing 0.1% Trycol 5941 in the spray solutions. Wheat plants (variety Yuma) were grown from seed in a greenhouse in 50% mineral soil/50% soil-less Metro mix until the first leaf was fully emerged, with 7-10 seedlings per pot. These plants were inoculated with an aqueous spore suspension of Septoria tritici either prior to or after fungicide treatments. After inoculation the plants were kept in 100% relative humidity (one day in a dark dew chamber followed by two to three days in a lighted dew chamber at 20° C.) to permit spores to germinate and infect the leaf. The plants were then transferred to a greenhouse set at 20° C. for disease to develop. When disease symptoms were fully expressed on the 1st leaves of untreated plants, infection levels were assessed on a scale of 0 to 100 percent disease severity. Percent disease control was calculated using the ratio of disease severity on treated plants relative to untreated plants. Sugar beet plants (variety HH88) were grown in soil-less Metro mix and trimmed regularly to maintain a uniform plant size prior to test. Plants were inoculated with a spore suspension 24 hr after fungicide treatments. Inoculated plants were kept in a dew chamber at 22° C. for 48 hr then incubated in a greenhouse set at 24° C. under a clear plastic hood with bottom ventilation until disease symptoms were fully expressed. Fungicide formulation, application and disease assessment on the sprayed leaves followed the procedures as described in the Example A.
row,SMILES,pest or weed control at 100 ppm [%]
1,COc1ccnc(C(=O)N[C@H]2CCC[C@H](CC(F)F)[C@@H](Oc3ccccc3)[C@H](C)OC2=O)c1OCOC(C)=O [Compound F138],80 to 100
2,COc1ccnc(C(=O)N[C@H]2CCC[C@H](CC3CCCCC3)[C@@H](OCC(C)C)[C@H](C)OC2=O)c1OCOC(C)=O [Compound F113],80 to 100
3,CCCO[C@@H]1[C@@H](Cc2ccc(F)cc2)CCC[C@H](NC(=O)c2nccc(OC)c2OCOC(C)=O)C(=O)O[C@H]1C [Compound F101],80 to 100
4,CCCO[C@@H]1[C@@H](Cc2ccc(OC)cc2)CCC[C@H](NC(=O)c2nccc(OC)c2OCOC(C)=O)C(=O)O[C@H]1C [Compound F119],80 to 100
5,CCOCC(=O)OCOc1c(OC)ccnc1C(=O)N[C@H]1CCC[C@H](Cc2ccccc2)[C@@H](OCC2CC2)[C@H](C)OC1=O [Compound F173],80 to 100
6,COc1ccnc(C(=O)N[C@H]2CCC[C@H](Cc3ccccc3)[C@@H](Oc3ccccc3)[C@H](C)OC2=O)c1OCOC(C)=O [Compound F108],80 to 100
7,CCCO[C@@H]1[C@@H](Cc2ccc(F)cc2)CCC[C@H](NC(=O)c2nccc(OC)c2OCOC(=O)COCC)C(=O)O[C@H]1C [Compound F167],80 to 100
8,CCCO[C@@H]1[C@@H](Cc2ccccc2)CCC[C@H](NC(=O)c2nccc(OC)c2OC(=O)CCOC)C(=O)O[C@H]1C [Compound F198],80 to 100

# Tested on: Rhyncosporium secalis
# Assay: Barley Scald (RHYNSE) disease control
# Assay type: in vivo
# Conditions: Hordeum vulgare, 24 h, 1 Day Protectant, read-out: Disease Control RHYNSE 1 DP
# Method: Technical grades of materials were dissolved in acetone, which were then mixed with nine volumes of water containing 110 ppm Triton X-100. The fungicide solutions were applied onto wheat seedlings using an automated booth sprayer to run-off. All sprayed plants were allowed to air dry prior to further handling. All fungicides were evaluated using the aforementioned method for their activity vs. all target diseases. Wheat leaf blotch and brown rust activity were also evaluated using track spray applications, in which case the fungicides were formulated as EC formulations, containing 0.1% Trycol 5941 in the spray solutions. Wheat plants (variety Yuma) were grown from seed in a greenhouse in 50% mineral soil/50% soil-less Metro mix until the first leaf was fully emerged, with 7-10 seedlings per pot. These plants were inoculated with an aqueous spore suspension of Septoria tritici either prior to or after fungicide treatments. After inoculation the plants were kept in 100% relative humidity (one day in a dark dew chamber followed by two to three days in a lighted dew chamber at 20° C.) to permit spores to germinate and infect the leaf. The plants were then transferred to a greenhouse set at 20° C. for disease to develop. When disease symptoms were fully expressed on the 1st leaves of untreated plants, infection levels were assessed on a scale of 0 to 100 percent disease severity. Percent disease control was calculated using the ratio of disease severity on treated plants relative to untreated plants. Barley seedlings (variety Harrington) were propagated in soil-less Metro mix, with each pot having 8 to 12 plants, and used in the test when first leaf was fully emerged. Test plants were inoculated by an aqueous spore suspension of Rhyncosporium secalis 24 hr after fungicide treatments. After inoculation the plants were kept in a dew room at 20° C. with 100% relative humidity for 48 hr. The plants were then transferred to a greenhouse set at 20° C. for disease to develop. Fungicide formulation, application and disease assessment on the sprayed leaves followed the procedures as described in the Example A.
row,SMILES,pest or weed control at 100 ppm [%]
1,COc1ccnc(C(=O)N[C@H]2CCC[C@H](CC(F)F)[C@@H](Oc3ccccc3)[C@H](C)OC2=O)c1OCOC(C)=O [Compound F138],0 to 80
2,COc1ccnc(C(=O)N[C@H]2CCC[C@H](CC3CCCCC3)[C@@H](OCC(C)C)[C@H](C)OC2=O)c1OCOC(C)=O [Compound F113],80 to 100
3,CCCO[C@@H]1[C@@H](Cc2ccc(F)cc2)CCC[C@H](NC(=O)c2nccc(OC)c2OCOC(C)=O)C(=O)O[C@H]1C [Compound F101],80 to 100
4,CCCO[C@@H]1[C@@H](Cc2ccc(OC)cc2)CCC[C@H](NC(=O)c2nccc(OC)c2OCOC(C)=O)C(=O)O[C@H]1C [Compound F119],80 to 100
5,CCOCC(=O)OCOc1c(OC)ccnc1C(=O)N[C@H]1CCC[C@H](Cc2ccccc2)[C@@H](OCC2CC2)[C@H](C)OC1=O [Compound F173],80 to 100
6,COc1ccnc(C(=O)N[C@H]2CCC[C@H](Cc3ccccc3)[C@@H](Oc3ccccc3)[C@H](C)OC2=O)c1OCOC(C)=O [Compound F108],80 to 100
7,CCCO[C@@H]1[C@@H](Cc2ccc(F)cc2)CCC[C@H](NC(=O)c2nccc(OC)c2OCOC(=O)COCC)C(=O)O[C@H]1C [Compound F167],80 to 100
8,COc1ccnc(C(=O)N[C@H]2CCC[C@H](Cc3ccccc3)[C@@H](OC3CCCC3)[C@H](C)OC2=O)c1OCOC(C)=O [Compound F110],80 to 100
9,CCCO[C@@H]1[C@@H](Cc2ccccc2)CCC[C@H](NC(=O)c2nccc(OC)c2OC(=O)CCOC)C(=O)O[C@H]1C [Compound F198],80 to 100

# Tested on: Magnaporthe grisea; Anamorph: Pyricularia oryzae
# Assay: whole plant or invertebrate
# Assay type: in vivo
# Conditions: Pyricularia oryzae, topical, 24 h, read-out: Disease Control PYRIOR 1 DP
row,SMILES,pest or weed control at 100 ppm [%]
1,COc1ccnc(C(=O)N[C@H]2CCC[C@H](CC(F)F)[C@@H](Oc3ccccc3)[C@H](C)OC2=O)c1OCOC(C)=O [Compound F138],80 to 100
2,COc1ccnc(C(=O)N[C@H]2CCC[C@H](CC3CCCCC3)[C@@H](OCC(C)C)[C@H](C)OC2=O)c1OCOC(C)=O [Compound F113],80 to 100
3,CCCO[C@@H]1[C@@H](Cc2ccc(F)cc2)CCC[C@H](NC(=O)c2nccc(OC)c2OCOC(C)=O)C(=O)O[C@H]1C [Compound F101],80 to 100
4,CCCO[C@@H]1[C@@H](Cc2ccc(OC)cc2)CCC[C@H](NC(=O)c2nccc(OC)c2OCOC(C)=O)C(=O)O[C@H]1C [Compound F119],80 to 100
5,CCOCC(=O)OCOc1c(OC)ccnc1C(=O)N[C@H]1CCC[C@H](Cc2ccccc2)[C@@H](OCC2CC2)[C@H](C)OC1=O [Compound F173],80 to 100
6,COc1ccnc(C(=O)N[C@H]2CCC[C@H](Cc3ccccc3)[C@@H](Oc3ccccc3)[C@H](C)OC2=O)c1OCOC(C)=O [Compound F108],80 to 100
7,CCCO[C@@H]1[C@@H](Cc2ccc(F)cc2)CCC[C@H](NC(=O)c2nccc(OC)c2OCOC(=O)COCC)C(=O)O[C@H]1C [Compound F167],80 to 100
8,COc1ccnc(C(=O)N[C@H]2CCC[C@H](Cc3ccccc3)[C@@H](OC3CCCC3)[C@H](C)OC2=O)c1OCOC(C)=O [Compound F110],80 to 100
9,CCCO[C@@H]1[C@@H](Cc2ccccc2)CCC[C@H](NC(=O)c2nccc(OC)c2OC(=O)CCOC)C(=O)O[C@H]1C [Compound F198],80 to 100

# Tested on: Phakopsora pachyrhizi
# Assay: Asian Soybean Rust (PHAKPA) disease control
# Assay type: in vivo
# Conditions: Phakopsora pachyrhizi, topical, 24 h, 1 Day Protectant, read-out: Disease Control PHAKPA 1DP
# Method: Technical grades of materials were dissolved in acetone, which were then mixed with nine volumes of water containing 0.011% Tween 20. The fungicide solutions were applied onto soybean seedlings using an automated booth sprayer to run-off. All sprayed plants were allowed to air dry prior to further handling.
# Soybean plants (variety Williams 82) were grown in soil-less Metro mix, with one plant per pot. Two weeks old seedlings were used for testing. Plants were inoculated either 3 days prior to or 1 day after fungicide treatments. Plants were incubated for 24 h in a dark dew room at 22° C. and 100% RH then transferred to a growth room at 23° C. for disease to develop. Disease severity was assessed on the sprayed leaves.
row,SMILES,pest or weed control at 25 ppm [%]
1,COc1ccnc(C(=O)N[C@H]2CCC[C@H](CC(F)F)[C@@H](Oc3ccccc3)[C@H](C)OC2=O)c1OCOC(C)=O [Compound F138],80 to 100
2,COc1ccnc(C(=O)N[C@H]2CCC[C@H](CC3CCCCC3)[C@@H](OCC(C)C)[C@H](C)OC2=O)c1OCOC(C)=O [Compound F113],80 to 100
3,CCCO[C@@H]1[C@@H](Cc2ccc(F)cc2)CCC[C@H](NC(=O)c2nccc(OC)c2OCOC(C)=O)C(=O)O[C@H]1C [Compound F101],80 to 100
4,CCCO[C@@H]1[C@@H](Cc2ccc(OC)cc2)CCC[C@H](NC(=O)c2nccc(OC)c2OCOC(C)=O)C(=O)O[C@H]1C [Compound F119],80 to 100
5,CCOCC(=O)OCOc1c(OC)ccnc1C(=O)N[C@H]1CCC[C@H](Cc2ccccc2)[C@@H](OCC2CC2)[C@H](C)OC1=O [Compound F173],80 to 100
6,CCCO[C@@H]1[C@@H](Cc2ccc(F)cc2)CCC[C@H](NC(=O)c2nccc(OC)c2OCOC(=O)COCC)C(=O)O[C@H]1C [Compound F167],80 to 100

# Same assay, conditions: Phakopsora pachyrhizi, topical, 72 h, 3 Day Curative, read-out: Disease Control PHAKPA 3DC
row,SMILES,pest or weed control at 25 ppm [%]
1,COc1ccnc(C(=O)N[C@H]2CCC[C@H](CC(F)F)[C@@H](Oc3ccccc3)[C@H](C)OC2=O)c1OCOC(C)=O [Compound F138],80 to 100
2,COc1ccnc(C(=O)N[C@H]2CCC[C@H](CC3CCCCC3)[C@@H](OCC(C)C)[C@H](C)OC2=O)c1OCOC(C)=O [Compound F113],0 to 80
3,CCCO[C@@H]1[C@@H](Cc2ccc(F)cc2)CCC[C@H](NC(=O)c2nccc(OC)c2OCOC(C)=O)C(=O)O[C@H]1C [Compound F101],0 to 80
4,CCCO[C@@H]1[C@@H](Cc2ccc(OC)cc2)CCC[C@H](NC(=O)c2nccc(OC)c2OCOC(C)=O)C(=O)O[C@H]1C [Compound F119],0 to 80
5,CCOCC(=O)OCOc1c(OC)ccnc1C(=O)N[C@H]1CCC[C@H](Cc2ccccc2)[C@@H](OCC2CC2)[C@H](C)OC1=O [Compound F173],80 to 100
6,CCCO[C@@H]1[C@@H](Cc2ccc(F)cc2)CCC[C@H](NC(=O)c2nccc(OC)c2OCOC(=O)COCC)C(=O)O[C@H]1C [Compound F167],0 to 80
